# Tests used:
# [1] = Inhibition of CDK1/cyclinB; set-up: species or system Homo sapiens
# [2] = molecular target: Tyrosine-protein kinase Fyn (Homo sapiens, UniProt P06241); experiment: Inhibition of FYN
# [3] = test system: SJSA-1; experiment: Antiproliferative activity against human SJSA1 cells; type: functional, cell-based
# [4] = molecular target: Ribosomal protein S6 kinase alpha-3 (Homo sapiens, UniProt P51812)
# [5] = molecular target: Protein kinase C delta type (Homo sapiens, UniProt Q05655); experiment: Inhibition of PKCd
# [6] = molecular target: Mitogen-activated protein kinase 1 (Homo sapiens, UniProt P28482); experiment: Inhibition of ERK
# [7] = molecular target: T1, Ephrin type-B receptor 3 (Homo sapiens, UniProt P54753); experiment: Inhibition of EPHB3
# T1 sequence (P54753 whole entry): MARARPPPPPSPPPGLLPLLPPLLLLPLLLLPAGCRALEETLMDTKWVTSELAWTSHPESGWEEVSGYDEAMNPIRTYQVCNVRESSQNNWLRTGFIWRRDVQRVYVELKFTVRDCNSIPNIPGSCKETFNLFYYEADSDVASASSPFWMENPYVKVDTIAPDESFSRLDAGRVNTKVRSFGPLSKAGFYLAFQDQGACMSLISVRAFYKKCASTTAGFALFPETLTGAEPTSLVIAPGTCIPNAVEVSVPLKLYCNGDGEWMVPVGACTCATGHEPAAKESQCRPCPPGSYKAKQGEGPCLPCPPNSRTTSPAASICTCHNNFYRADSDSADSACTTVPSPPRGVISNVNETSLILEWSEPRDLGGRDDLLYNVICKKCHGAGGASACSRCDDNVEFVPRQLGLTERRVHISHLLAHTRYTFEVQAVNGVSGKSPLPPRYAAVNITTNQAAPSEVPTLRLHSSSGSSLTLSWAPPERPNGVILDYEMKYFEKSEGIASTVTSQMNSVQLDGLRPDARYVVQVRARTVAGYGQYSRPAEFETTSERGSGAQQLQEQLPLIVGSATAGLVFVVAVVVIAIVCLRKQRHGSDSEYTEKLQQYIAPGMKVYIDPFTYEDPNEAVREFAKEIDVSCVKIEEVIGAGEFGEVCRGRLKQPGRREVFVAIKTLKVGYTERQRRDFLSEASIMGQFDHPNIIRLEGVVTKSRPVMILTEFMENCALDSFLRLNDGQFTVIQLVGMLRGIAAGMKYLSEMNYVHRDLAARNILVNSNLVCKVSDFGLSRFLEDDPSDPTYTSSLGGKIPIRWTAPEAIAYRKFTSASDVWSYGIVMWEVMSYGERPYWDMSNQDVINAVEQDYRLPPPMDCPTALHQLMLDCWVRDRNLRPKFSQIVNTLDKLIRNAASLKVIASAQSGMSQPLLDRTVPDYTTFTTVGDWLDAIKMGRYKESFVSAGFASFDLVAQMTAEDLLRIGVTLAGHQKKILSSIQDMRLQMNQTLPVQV
# [8] = molecular target: Cyclin-dependent kinase 4 (Homo sapiens, UniProt P11802); experiment: Inhibition of CDK4
# [9] = molecular target: Protein kinase C alpha type (Homo sapiens, UniProt P17252); experiment: Inhibition of PKCa
# [10] = molecular target: Cyclin-dependent kinase 2 (Homo sapiens, UniProt P24941); experiment: Inhibition of CDK2
# [11] = molecular target: Glycogen synthase kinase-3 (Homo sapiens, UniProt P49840+P49841); experiment: Inhibition of GSKp1; type: protein assay
# [12] = molecular target: Serine/threonine-protein kinase AKT (Homo sapiens, UniProt P31751+Q9Y243+P31749); experiment: Inhibition of AKT; type: protein assay
# Protein kinase C delta type, sequence (Q05655 whole entry): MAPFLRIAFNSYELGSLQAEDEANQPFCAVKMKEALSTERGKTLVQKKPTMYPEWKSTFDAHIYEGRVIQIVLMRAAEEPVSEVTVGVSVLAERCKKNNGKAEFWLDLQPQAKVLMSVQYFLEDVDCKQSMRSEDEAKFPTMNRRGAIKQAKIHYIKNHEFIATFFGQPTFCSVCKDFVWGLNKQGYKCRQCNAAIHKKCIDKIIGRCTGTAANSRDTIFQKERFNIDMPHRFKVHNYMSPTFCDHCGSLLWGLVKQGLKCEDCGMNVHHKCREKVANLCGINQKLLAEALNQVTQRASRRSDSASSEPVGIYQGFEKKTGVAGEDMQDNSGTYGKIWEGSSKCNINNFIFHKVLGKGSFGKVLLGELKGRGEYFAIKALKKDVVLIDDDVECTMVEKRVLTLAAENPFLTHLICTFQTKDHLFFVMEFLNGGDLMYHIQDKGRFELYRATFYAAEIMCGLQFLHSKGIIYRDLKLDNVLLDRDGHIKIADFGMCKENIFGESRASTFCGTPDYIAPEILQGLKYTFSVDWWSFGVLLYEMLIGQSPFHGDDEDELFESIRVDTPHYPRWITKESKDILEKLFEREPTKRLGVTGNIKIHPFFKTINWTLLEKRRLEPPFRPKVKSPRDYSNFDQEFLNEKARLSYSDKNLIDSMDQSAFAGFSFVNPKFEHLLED
# Mitogen-activated protein kinase 1, sequence (P28482 whole entry): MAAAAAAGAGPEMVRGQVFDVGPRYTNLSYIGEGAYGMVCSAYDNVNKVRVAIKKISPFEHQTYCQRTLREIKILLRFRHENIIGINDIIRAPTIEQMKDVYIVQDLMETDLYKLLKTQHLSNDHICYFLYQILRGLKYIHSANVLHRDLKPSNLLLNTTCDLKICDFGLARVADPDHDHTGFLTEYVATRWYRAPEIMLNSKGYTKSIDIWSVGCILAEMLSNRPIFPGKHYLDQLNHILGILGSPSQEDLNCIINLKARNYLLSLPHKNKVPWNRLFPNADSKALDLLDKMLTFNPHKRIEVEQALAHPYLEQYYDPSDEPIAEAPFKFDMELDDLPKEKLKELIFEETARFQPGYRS
# Tyrosine-protein kinase Fyn, sequence (P06241 whole entry): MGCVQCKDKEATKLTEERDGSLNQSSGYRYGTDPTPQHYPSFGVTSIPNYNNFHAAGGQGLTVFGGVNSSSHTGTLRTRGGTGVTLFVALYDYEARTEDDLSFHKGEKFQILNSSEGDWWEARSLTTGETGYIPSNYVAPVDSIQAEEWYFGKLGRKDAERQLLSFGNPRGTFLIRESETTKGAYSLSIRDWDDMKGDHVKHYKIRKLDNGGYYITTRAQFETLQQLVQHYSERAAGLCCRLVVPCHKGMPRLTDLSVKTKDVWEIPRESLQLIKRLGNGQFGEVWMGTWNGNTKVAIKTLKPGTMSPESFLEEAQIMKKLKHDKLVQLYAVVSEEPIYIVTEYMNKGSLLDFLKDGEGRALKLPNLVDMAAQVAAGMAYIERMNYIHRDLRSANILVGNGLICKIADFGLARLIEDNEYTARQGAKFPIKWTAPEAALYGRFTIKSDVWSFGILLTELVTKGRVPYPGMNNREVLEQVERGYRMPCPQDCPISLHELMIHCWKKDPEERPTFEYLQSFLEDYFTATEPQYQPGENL
# Ribosomal protein S6 kinase alpha-3, sequence (P51812 whole entry): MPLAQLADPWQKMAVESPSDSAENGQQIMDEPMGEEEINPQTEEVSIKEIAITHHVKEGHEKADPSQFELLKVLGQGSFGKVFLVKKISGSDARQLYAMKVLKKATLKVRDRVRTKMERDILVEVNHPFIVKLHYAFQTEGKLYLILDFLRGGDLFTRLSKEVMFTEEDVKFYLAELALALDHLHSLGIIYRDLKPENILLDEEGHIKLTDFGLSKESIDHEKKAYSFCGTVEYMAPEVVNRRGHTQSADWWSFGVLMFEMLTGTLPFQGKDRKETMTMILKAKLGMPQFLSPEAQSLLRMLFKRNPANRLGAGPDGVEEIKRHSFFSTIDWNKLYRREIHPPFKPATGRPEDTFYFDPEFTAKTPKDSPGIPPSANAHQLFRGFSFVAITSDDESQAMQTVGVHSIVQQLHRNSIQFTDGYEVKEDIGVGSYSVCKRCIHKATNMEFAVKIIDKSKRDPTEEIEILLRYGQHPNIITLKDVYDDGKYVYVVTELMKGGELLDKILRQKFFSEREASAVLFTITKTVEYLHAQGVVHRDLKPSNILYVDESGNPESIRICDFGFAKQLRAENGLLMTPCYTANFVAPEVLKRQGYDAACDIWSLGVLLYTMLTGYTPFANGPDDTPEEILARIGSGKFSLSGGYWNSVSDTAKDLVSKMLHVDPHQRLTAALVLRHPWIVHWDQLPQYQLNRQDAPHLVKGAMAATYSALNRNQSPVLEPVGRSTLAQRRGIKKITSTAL
# Cyclin-dependent kinase 4, sequence (P11802 whole entry): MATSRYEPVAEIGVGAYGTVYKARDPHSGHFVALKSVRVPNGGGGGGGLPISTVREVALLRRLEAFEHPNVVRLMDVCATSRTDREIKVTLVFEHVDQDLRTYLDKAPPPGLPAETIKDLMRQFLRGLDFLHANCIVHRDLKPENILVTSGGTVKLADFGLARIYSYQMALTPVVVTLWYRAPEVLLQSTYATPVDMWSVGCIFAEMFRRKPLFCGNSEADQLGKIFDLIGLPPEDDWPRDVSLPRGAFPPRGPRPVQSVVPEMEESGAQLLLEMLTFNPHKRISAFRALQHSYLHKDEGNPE
Ki [1] [nM],SMILES,also measured
640,O=C1N=C(NCCc2ccc(Br)cc2)S/C1=C\c1ccc2ncccc2c1,–
63,COc1ccccc1CCNC1=NC(=O)/C(=C/c2ccc3ncccc3c2)S1,–
270,CNC1=NC(=O)/C(=C/c2ccc3ncccc3c2)S1,–
310,CCCCNC1=NC(=O)/C(=C/c2ccc3ncccc3c2)S1,–
150,O=C1N=C(NCc2ccccc2)S/C1=C\c1ccc2ncccc2c1,–
310,O=C1N=C(NCc2ccccn2)S/C1=C\c1ccc2ncccc2c1,–
87,CCOc1ccccc1CCNC1=NC(=O)/C(=C/c2ccc3ncccc3c2)S1,–
130,O=C1N=C(NCCc2cccc(Cl)c2)S/C1=C\c1ccc2ncccc2c1,–
> 2000,CONC1=NC(=O)/C(=C/c2ccc3ncccc3c2)S1,–
60,O=C1N=C(NCCc2cccc(F)c2)S/C1=C\c1ccc2ncccc2c1,–
45,O=C1N=C(NCCc2cccs2)S/C1=C\c1ccc2ncccc2c1,–
62,O=C1N=C(NCCc2ccc(F)cc2)S/C1=C\c1ccc2ncccc2c1,–
86,COc1ccccc1CNC1=NC(=O)/C(=C/c2ccc3ncccc3c2)S1,–
1040,O=C1N=C(NCc2c(Cl)cccc2Cl)S/C1=C\c1ccc2ncccc2c1,–
2000,O=C1N=C(N[C@H](CO)Cc2ccccc2)S/C1=C\c1ccc2ncccc2c1,–
580,O=C1N=C(N[C@H](CO)c2ccccc2)S/C1=C\c1ccc2ncccc2c1,–
> 2000,COC[C@H](NC1=NC(=O)/C(=C/c2ccc3ncccc3c2)S1)c1ccccc1,–
23,O=C1N=C(N[C@@H]2C[C@H]2c2ccccc2)S/C1=C\c1ccc2ncccc2c1,Ki [2]: > 2000 nM; IC50 [3]: 1850 nM; Ki [4]: > 2000 nM; Ki [5]: 480 nM; Ki [6]: 220 nM; Ki [7]: > 2000 nM; Ki [8]: > 2000 nM; Ki [9]: > 2000 nM; Ki [10]: > 2000 nM; Ki [11]: > 2000 nM; Ki [12]: > 2000 nM

Ki [1] [nM],SMILES,also measured
> 2000,CN(Cc1cccs1)C1=NC(=O)/C(=C/c2ccc3ncccc3c2)S1,–
46,O=C1N=C(NCCc2ccccc2Cl)S/C1=C\c1ccc2ncccc2c1,–
390,COc1ccc(CCNC2=NC(=O)/C(=C/c3ccc4ncccc4c3)S2)cc1,–
89,Cc1ccsc1CNC1=NC(=O)/C(=C/c2ccc3ncccc3c2)S1,–
38,O=C1N=C(NCc2ccccc2Br)S/C1=C\c1ccc2ncccc2c1,–
> 2000,O=C1N=C(Nc2ccccc2)S/C1=C\c1ccc2ncccc2c1,–
240,O=C1N=C(NCCCc2ccccc2)S/C1=C\c1ccc2ncccc2c1,–
230,O=C1N=C(N[C@@H](CO)Cc2ccccc2)S/C1=C\c1ccc2ncccc2c1,IC50 [3]: 3240 nM
350,O=C1N=C(N[C@@H](CO)c2ccccc2)S/C1=C\c1ccc2ncccc2c1,–
390,O=C1N=C(NCC(CO)c2ccccc2)S/C1=C\c1ccc2ncccc2c1 (stereo not given),–
–,O=C1N=C(NCc2cccs2)S/C1=C\c1ccc2ncccc2c1,Ki [2]: > 2000 nM; IC50 [3]: 4550 nM; Ki [5]: 320 nM; Ki [6]: 2000 nM; Ki [7]: > 2000 nM; Ki [9]: > 2000 nM; Ki [11]: 500 nM; Ki [12]: > 2000 nM
410,O=C1N=C(NCCc2ccc(Cl)cc2)S/C1=C\c1ccc2ncccc2c1,–
270,O=C1N=C(NC2CC2)S/C1=C\c1ccc2ncccc2c1,–
80,NC1=NC(=O)/C(=C/c2ccc3ncccc3c2)S1,Ki [2]: > 2000 nM; Ki [4]: > 2000 nM; Ki [5]: 1700 nM; Ki [6]: > 2000 nM; Ki [7]: > 2000 nM; Ki [8]: > 2000 nM; Ki [9]: > 2000 nM; Ki [10]: 2000 nM; Ki [11]: > 2000 nM; Ki [12]: > 2000 nM
280,O=C1N=C(NCCc2ccccn2)S/C1=C\c1ccc2ncccc2c1,–
60,O=C1N=C(NCCc2ccccc2)S/C1=C\c1ccc2ncccc2c1,–
120,O=C1N=C(NCCc2ccccc2F)S/C1=C\c1ccc2ncccc2c1,–
52,O=C1N=C(NCc2ccccc2Cl)S/C1=C\c1ccc2ncccc2c1,–
